The values below come from patent publication US20260152636A1, “GELLING SOLUTIONS FOR ADMINISTRATION OF COMPOUNDS TO THE INNER EAR” (Spiral Therapeutics, Inc., priority 2020, published 2026).

Data set [1] deals with MD patients. As to conditions: cited from earlier work.
The conditions of data set [2]: guinea pig, in vivo.
Procedure: (§1) An 8-week toxicology study was performed to assess the safety and pharmacokinetics of intratympanic administration of a PEG-trilysine polymer formulation in Hartley guinea pigs. […] Hartley guinea pigs of both sexes [n=46 (23 males and 23 females) were used for the study. Following 3 to 7 days of acclimation, all guinea pigs underwent baseline ABRs tests at 4, 10, and 20 kHz.
(§2) Perilymph samples were collected at terminus at 3 days, 1 week, 4 weeks, and 8 weeks post administration.
Data set [3] in a line: in vivo. As to conditions: both, Hartley, guinea pig, other: intratympanic, 5 μL.
Procedure: as §1, §2
A short description of data set [4]: Dexamethasone levels in plasma and perilymph after single IT injection in green monkey. The following applies: through Day 22. Type of data set: in vivo, African green monkey (Chlorocebus sabaeus). How it is done:
Information on absorption, distribution and pharmacokinetics of the PEG-trilysine polymer formulation by otic administration were obtained from a pharmacokinetic (PK) and tolerability study conducted in the African green monkey (Chlorocebus sabaeus)
The perilymph and plasma concentrations of the PEG-trilysine polymer formulation were evaluated following a single IT injection. Perilymph and plasma levels of test and control articles were measured after 1, 10 and 22 days. Given the small study size (N=9 enrolled) and number of total ears treated, PK data are presented as descriptive statistics only.
The absorption and distribution of dexamethasone was also investigated in African green monkeys.

Data set [5] relates to Hartley guinea pigs. In words: 8-week safety study, ABR threshold shift after intratympanic injection. Type of data set: in vivo, guinea pig. The following applies: IT injection; Days 3 and 14; positive control. From the text:
Groups 1-3 were further divided into subgroups with varying survival times up to 8 weeks. The number of ears for the 4-week and 8-week timepoints in this study were powered to detect a 20 dB shift from baseline in the ABR threshold measurement at each of the three test frequencies (1-way t-test; independent means; apriori; power=0.95), using sample data to estimate variability from pilot studies. Auditory brainstem responses and blood sampling were collected at specified in-life timepoints, including terminus. Perilymph sampling, middle ear visualization, and histology sample preparation were performed on specified animals at terminus.

For `C[C@@H]1C[C@H]2[C@@H]3CCC4=CC(=O)C=C[C@]4(C)[C@@]3(F)[C@@H](O)C[C@]2(C)[C@@]1(O)C(=O)CO` [Dexamethasone, dexamethasone], the “Incidence of TM perforation” value in data set [1] (end of Phase 1b study, 3 mg or 12 mg single IT injection) is given as 3%. The Safety and tolerability entry in data set [1] (single IT injection of 12 mg, formulated with poloxamer 407, unilateral MD) is recorded as “safe, well-tolerated”. In data set [2], the “Perilymph Mean (ng/mL)” value is given as “BLQ” and the “Plasma Mean (ng/mL)” value is “BLQ”. Further, in data set [3] (perilymph), the concentration at 1 week turned out to be 1700 ng/mL and the concentration at 3 days was found to be 109 ng/mL. In data set [3] (plasma), this molecule had a concentration at 1 week of 3.2 ng/mL and a concentration at 3 days of 5.5 ng/mL. In addition, in data set [4], the “Plasma levels of dexamethasone over time” value is listed as “remained within detectable limits through Day 22”.
On to gentamicin, for which, in data set [1] (IT therapy, one study), the “Improvement in aural fullness” value is 31%. For the same molecule, the ABR threshold shift in data set [5] is recorded as ≥ 55 dB.
